Active and inactive are the calls of the source.
Tests used:
[1] = reduction of Shn3 3'UTR-driven luciferase in osteoblasts – cell-based, Clone20 osteoblasts, firefly luciferase, cherry-picked, dose response (AID 624132); assay type: functional;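 also: firefly luciferase luminescence from reporter carrying the Shn3 3'UTR in osteoblasts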
[2] = test system: A-375; experiment: proliferation inhibition in MITF-low A375 cells – cell-based, cherry-pick samples, set 2, counter-screen for MITF modulator project, dose response (AID 540335); assay type: functional; conditions: Homo sapiens
[3] = non-specific 3'UTR reporter inhibition in Clone20-Shn3RL – cell-based, Renilla luciferase, cherry-picked, counter-screen for Shn3 inhibitor project, dose response (AID 624133); assay type: functional
[4] = test system: A-375; experiment: MITF: Counter assay: A375 proliferation Measured in Cell-Based System Using Plate Reader - 2084-03_Inhibitor_Dose_DryPowder_Activity. [Related pubchem assays (depositor defined):AID488944]; assay type: functional; conditions: Homo sapiens
[5] = viability of PTEN-deleted HCT116 cells – cell-based, HCT116 PTEN knockout, dose response (AID 1047); assay type: functional;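 also: HCT116 colon tumor cells with PTEN knocked out; cells exposed to compound for 60 hours before readout; potency for loss of cell viability measured by luminescence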
[6] = viability loss in HepG2 hepatoma cells – cell-based, cherry-picks, set 5, cytotoxicity control, dose response (AID 1053118); assay type: functional
[7] = loss of viability in HepG2 cells – cell-based, CellTiter-Glo, cherry-picked, cytotoxicity control for Shn3 inhibitor project, dose response (AID 624134); assay type: functional
[8] = target: T1, Microphthalmia-associated transcription factor (Homo sapiens, UniProt O75030); experiment: reducers of TRPM1 reporter luminescence, concentration series – cell-based, SK-MEL-5, cherry-picked, set 3, MITF inhibitor project, dose response (AID 493073); assay type: functional;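 also: SK-MEL-5 melanoma cells with luciferase driven by the MITF target TRPM1 promoter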
T1 sequence (O75030 whole entry): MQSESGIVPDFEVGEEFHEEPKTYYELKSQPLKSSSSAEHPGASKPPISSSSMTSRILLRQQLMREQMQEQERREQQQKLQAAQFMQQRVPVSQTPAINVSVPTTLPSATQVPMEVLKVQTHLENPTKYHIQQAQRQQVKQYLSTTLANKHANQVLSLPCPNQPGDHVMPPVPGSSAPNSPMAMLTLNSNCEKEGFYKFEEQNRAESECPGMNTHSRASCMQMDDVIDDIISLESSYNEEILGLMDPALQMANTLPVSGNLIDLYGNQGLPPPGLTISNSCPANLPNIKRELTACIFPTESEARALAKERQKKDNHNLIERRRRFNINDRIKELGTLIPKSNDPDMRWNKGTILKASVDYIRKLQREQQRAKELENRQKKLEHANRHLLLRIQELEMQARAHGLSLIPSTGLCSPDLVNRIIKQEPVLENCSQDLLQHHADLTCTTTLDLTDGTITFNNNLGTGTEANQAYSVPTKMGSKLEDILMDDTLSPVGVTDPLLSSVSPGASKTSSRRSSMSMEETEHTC

[9] = blockers of FN fibrillogenesis by fibroblasts – AH1F cells, Alexa488-FN fluorescence, cherry-picks, dose response (AID 1035475); assay type: functional, cell-based
[10] = viability of HCT116 lacking mutant beta-catenin – cell-based, human colon tumor, dose response (AID 1045); assay type: functional;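 also: HCT116 colon tumor cells with beta catenin knocked out; cells exposed to compound for 60 hours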
[11] = target: Arf-GAP with SH3 domain, ANK repeat and PH domain-containing protein 1 (Homo sapiens, UniProt Q9ULH1); assay type: functional;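 also: biochemical fluorescence polarization dose–response screen measuring inhibition of ASAP1; ASAP1 GAP domain stimulating GTP hydrolysis by truncated human ARF1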
Chain of Arf-GAP with SH3 domain, ANK repeat and PH domain-containing protein 1 (Q9ULH1 whole entry, the tested form may be a part): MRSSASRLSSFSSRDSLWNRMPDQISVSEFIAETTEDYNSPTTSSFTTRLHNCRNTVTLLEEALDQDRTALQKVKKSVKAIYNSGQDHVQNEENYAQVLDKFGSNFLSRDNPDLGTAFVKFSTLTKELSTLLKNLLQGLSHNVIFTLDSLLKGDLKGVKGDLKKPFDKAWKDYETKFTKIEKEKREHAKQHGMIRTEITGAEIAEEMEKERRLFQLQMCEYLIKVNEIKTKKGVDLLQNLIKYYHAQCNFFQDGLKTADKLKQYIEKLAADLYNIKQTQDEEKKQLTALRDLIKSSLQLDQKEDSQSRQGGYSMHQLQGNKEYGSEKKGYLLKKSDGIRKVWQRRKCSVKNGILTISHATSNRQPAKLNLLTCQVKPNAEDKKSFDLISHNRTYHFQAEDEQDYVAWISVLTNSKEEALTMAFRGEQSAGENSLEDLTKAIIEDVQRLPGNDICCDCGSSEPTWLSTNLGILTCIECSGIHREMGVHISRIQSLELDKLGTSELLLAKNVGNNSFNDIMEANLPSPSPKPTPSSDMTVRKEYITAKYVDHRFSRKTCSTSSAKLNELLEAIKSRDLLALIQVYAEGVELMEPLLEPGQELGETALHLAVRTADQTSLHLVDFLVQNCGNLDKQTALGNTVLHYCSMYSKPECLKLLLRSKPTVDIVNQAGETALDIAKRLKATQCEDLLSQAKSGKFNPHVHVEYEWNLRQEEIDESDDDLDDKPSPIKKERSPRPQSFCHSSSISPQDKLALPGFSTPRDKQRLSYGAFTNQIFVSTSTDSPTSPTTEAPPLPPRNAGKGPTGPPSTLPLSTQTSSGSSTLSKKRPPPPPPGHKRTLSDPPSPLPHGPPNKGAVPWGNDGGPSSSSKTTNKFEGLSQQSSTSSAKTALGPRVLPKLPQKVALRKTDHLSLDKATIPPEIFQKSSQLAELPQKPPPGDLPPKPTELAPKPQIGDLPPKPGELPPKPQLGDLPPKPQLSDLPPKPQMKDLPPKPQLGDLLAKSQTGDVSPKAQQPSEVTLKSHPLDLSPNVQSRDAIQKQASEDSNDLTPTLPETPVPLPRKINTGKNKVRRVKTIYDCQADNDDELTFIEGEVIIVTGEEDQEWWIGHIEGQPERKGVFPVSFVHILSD

[12] = target: 5-hydroxytryptamine receptor 2A (Mus musculus, UniProt P35363); assay type: functional, cell-based;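 also: CHO-K1 cells with tagged receptor and beta-arrestin; agonist potency measured as compound-induced activation of the receptor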
Chain of 5-hydroxytryptamine receptor 2A (P35363 whole entry): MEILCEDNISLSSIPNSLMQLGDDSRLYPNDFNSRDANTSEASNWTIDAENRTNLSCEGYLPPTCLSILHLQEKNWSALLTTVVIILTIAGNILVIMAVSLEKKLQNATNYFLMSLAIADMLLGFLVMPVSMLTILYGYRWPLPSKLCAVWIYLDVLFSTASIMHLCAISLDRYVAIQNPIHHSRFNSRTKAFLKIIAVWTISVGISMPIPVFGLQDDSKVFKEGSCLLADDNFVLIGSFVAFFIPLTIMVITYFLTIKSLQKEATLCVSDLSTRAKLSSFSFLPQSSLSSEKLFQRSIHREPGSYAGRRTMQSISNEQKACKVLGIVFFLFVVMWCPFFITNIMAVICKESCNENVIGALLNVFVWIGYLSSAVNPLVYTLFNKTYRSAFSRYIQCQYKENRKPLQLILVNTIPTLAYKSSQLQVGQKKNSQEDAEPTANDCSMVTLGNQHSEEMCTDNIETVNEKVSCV

[13] = target: Mu-type opioid receptor (Homo sapiens, UniProt P35372); assay type: functional, cell-based;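 also: U2OS cells with beta-arrestin recruitment to OPRM1 by beta-gal complementation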
Chain of Mu-type opioid receptor (P35372 whole entry): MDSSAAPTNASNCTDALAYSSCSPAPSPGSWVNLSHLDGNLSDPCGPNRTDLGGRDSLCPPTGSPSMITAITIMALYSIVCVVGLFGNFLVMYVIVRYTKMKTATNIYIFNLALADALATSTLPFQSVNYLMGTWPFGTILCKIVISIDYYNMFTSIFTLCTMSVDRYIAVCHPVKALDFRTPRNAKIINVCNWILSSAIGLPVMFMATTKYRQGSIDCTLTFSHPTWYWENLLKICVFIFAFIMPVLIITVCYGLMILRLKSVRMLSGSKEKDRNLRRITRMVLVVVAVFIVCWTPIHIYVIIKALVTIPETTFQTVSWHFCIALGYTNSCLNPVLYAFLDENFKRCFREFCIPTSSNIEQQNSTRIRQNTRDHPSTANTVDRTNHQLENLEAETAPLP

[14] = target: Beta-lactamase (Salmonella choleraesuis (strain SC-B67), UniProt Q5J463); experiment: Epi-absorbance-based counterscreen for selective VIM-2 inhibitors: dose response biochemical high throughput screening assay to identify inhibitors of TEM-1 serine-beta-lactamase.
Chain of Beta-lactamase (Salmonella choleraesuis (strain SC-B67), UniProt Q5J463) (Q5J463 whole entry): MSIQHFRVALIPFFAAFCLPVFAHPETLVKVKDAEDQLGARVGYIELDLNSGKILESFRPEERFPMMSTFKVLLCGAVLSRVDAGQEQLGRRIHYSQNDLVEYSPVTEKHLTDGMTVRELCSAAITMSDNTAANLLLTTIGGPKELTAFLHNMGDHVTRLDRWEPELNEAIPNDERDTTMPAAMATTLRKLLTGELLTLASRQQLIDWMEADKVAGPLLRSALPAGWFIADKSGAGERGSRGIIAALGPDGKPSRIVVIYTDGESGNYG

[15] = target: T2, Beta-lactamase (Pseudomonas aeruginosa, UniProt Q79MP6); experiment: […] counterscreen for selective VIM-2 inhibitors: dose response biochemical high throughput screening assay to identify inhibitors of IMP-1 metallo-beta-lactamase.
T2 sequence (Q79MP6 whole entry): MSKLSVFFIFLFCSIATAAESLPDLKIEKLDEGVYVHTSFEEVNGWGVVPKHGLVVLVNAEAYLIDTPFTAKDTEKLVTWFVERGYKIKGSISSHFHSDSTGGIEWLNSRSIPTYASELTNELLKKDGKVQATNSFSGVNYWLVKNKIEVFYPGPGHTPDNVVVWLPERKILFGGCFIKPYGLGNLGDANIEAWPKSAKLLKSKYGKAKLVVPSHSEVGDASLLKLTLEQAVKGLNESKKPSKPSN

[16] = target: T3, Leucine aminopeptidase (Plasmodium falciparum 3D7, UniProt Q8IL11); experiment: P. falciparum M17LAP inhibitors, primary screen, biochemical, fluorogenic H-Leu-NHMec substrate, 1536-well (AID 1619); assay type: functional
T3 sequence (Q8IL11 whole entry): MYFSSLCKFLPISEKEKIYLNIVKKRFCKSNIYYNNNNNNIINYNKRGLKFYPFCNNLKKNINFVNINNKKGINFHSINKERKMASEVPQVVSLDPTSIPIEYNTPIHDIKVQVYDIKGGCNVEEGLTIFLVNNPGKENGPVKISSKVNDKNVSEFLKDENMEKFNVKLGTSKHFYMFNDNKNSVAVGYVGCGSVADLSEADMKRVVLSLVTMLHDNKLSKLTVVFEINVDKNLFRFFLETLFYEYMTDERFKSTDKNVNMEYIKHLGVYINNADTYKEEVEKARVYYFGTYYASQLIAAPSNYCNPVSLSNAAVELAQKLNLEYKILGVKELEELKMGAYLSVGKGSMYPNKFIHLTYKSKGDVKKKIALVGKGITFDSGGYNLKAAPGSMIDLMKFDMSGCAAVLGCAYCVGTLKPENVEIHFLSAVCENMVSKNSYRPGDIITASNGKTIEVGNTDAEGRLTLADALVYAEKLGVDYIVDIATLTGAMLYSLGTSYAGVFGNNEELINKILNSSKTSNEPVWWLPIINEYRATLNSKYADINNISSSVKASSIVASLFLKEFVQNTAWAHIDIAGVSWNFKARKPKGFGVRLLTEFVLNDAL

[17] = target: T2, Beta-lactamase; experiment: inhibition of IMP-1 beta-lactamase activity – biochemical, epi-absorbance, selectivity assay for VIM-2 inhibitor project, dose response (AID 1920)
[18] = target: T4, Heat shock factor protein 1 (Mus musculus, UniProt P38532); experiment: enhancement of HSF1-driven luciferase signal – cell-based, NIH3T3, luminescence, dose retest, confirmation (AID 435004); assay type: functional;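 also: stress induced by proteasome inhibitor MG132 added 30 min after compound; luciferase reporter driven by HSF1 response element in NIH3T3 cells; actives raise luminescence as potentiators of the MG132 stress response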
T4 sequence (P38532 whole entry): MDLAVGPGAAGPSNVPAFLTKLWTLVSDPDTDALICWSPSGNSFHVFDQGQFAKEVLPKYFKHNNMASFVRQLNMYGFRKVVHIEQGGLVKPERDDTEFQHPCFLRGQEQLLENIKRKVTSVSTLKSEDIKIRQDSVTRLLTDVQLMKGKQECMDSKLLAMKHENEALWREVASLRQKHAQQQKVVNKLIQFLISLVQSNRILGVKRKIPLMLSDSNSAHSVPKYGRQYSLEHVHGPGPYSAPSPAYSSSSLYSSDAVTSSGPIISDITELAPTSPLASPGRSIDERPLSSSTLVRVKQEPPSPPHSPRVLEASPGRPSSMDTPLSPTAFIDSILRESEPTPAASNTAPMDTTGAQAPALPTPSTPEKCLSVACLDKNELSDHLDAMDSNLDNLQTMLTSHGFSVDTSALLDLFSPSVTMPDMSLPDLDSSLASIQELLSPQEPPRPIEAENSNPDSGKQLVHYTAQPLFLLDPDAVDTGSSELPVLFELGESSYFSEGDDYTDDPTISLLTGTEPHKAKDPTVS

[19] = target: fMet-Leu-Phe receptor (Homo sapiens, UniProt P21462); experiment: formyl peptide receptor binders – dose response (AID 519); assay type: functional
Chain of fMet-Leu-Phe receptor (P21462 whole entry): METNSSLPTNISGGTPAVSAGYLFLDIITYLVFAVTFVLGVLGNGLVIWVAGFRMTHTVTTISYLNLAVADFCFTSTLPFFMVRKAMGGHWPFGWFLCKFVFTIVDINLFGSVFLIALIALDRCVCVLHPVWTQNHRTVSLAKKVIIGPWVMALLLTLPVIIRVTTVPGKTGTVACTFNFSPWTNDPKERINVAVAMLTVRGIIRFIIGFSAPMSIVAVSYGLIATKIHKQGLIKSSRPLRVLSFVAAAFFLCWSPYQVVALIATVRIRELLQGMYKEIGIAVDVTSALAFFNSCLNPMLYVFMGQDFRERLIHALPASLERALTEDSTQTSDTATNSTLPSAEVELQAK

[20] = cells; assay type: functional, cell-based
[21] = target: T5, Nuclear receptor subfamily 0 group B member 1 (Homo sapiens, UniProt P51843); assay type: functional, cell-based;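 also: HEK293T cells transfected with SF-1 and DAX-1 plus StAR promoter luciferase reporter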
T5 sequence (P51843 whole entry): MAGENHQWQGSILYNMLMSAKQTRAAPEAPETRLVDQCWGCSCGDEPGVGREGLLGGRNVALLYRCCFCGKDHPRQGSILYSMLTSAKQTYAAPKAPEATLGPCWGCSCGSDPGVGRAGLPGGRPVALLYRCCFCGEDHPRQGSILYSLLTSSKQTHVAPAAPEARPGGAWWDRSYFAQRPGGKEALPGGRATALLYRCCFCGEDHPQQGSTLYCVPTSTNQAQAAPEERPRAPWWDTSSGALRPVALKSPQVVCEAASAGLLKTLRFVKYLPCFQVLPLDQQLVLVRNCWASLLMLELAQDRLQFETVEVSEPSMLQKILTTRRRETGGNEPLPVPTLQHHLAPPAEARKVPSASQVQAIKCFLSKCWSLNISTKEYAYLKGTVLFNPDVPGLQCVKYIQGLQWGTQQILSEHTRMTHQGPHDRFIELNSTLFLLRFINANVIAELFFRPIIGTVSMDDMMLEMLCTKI

[22] = viability loss in HEK293 cells – cell-based, plate reader, cherry-picked samples, cytotoxicity control, dose response (AID 743446); assay type: functional
[23] = blockade of melanocortin 4 receptor signaling – cell-based, plate reader, cherry pick, counter-screen for LGR2 antagonist project, dose response (AID 743444); assay type: functional;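 also: transfected HEK 293 cells stimulated with alpha-MSH peptide; potency of inhibitors of the alpha-MSH evoked signal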
[24] = blockers of bursicon-stimulated LGR2 cAMP reporter – cell-based, HEK293, CRE-luciferase reporter, cherry pick, set 2, dose response (AID 743343); assay type: functional;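 also: transfected cells were stimulated with diluted bursicon conditioned medium after compound addition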
[25] = bead-based luminescence quenchers, dual-tagged ARNT – biochemical, AlphaScreen, cherry-pick, artefact control for ARNT-TACC3 interaction inhibitor project, dose response (AID 651705); assay type: functional;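 also: AlphaScreen bead proximity signal that flags compounds interfering with the detection technology; potency reflects signal decrease which marks the compound as an assay artifact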

## Cn1cc([N+](=O)[O-])c(C(=O)Nc2cc(Oc3ccccc3)cc([N+](=O)[O-])c2)n1
[1]
  AC50: 5.41 µM (active)
[2]
  AC50: > 35 µM (active)
[3]
  AC50: 2.82 µM (active)
[4]
  AC50: > 35 µM (active)
[5]
  EC50: 0.389 µM (active)
[6]
  AC50: 21.9 µM (active)
[7]
  AC50: 19.8 µM (active)
[8]
  AC50: 12.4 µM (active)
[9]
  AC50: 12.3 µM (active)
[10]
  EC50: 0.309 µM (active)

## O=C(Cn1cncc1-c1ccc([N+](=O)[O-])cc1)Nc1cccc2ccccc12
[11]
  IC50: 28.1 µM (inactive)

## O=C(C[n+]1cc(-c2ccccc2)n2c1CCC2)Nc1nc(-c2ccc(F)cc2)cs1
[12]
  EC50: 76.1 µM (inactive)
[13]
  EC50: 92.5 µM (inactive)

## CC(C)(C)c1ccc(COc2ccsc2C(=O)O)cc1
[14]
  IC50: > 59.6 µM (inactive)
[15]
  IC50: > 59.6 µM (inactive)
[16]
  IC50: 11.5 µM (active)
[17]
  IC50: > 59.6 µM (inactive)
[18]
  EC50: 137 µM (active)

## COc1ccc(OC)c(NC(=O)C2C3CCC(C3=C(C)C)C2C(=O)O)c1 (stereo not given)
[19]
  Ki: > 66.7 µM (inactive)

## Cc1ccnc(NC(=O)c2cccc(S(=O)(=O)N3CCN(c4ccccc4)CC3)c2)c1
[20]
  IC50: > 67.5 µM (inactive)
[21]
  IC50: > 67.5 µM (inactive)
[22]
  AC50: > 52 µM (inactive)
[23]
  AC50: 14.6 µM (active)
[24]
  AC50: 12.4 µM (active)

## O=C(Nc1ccc(F)cc1)c1nc[nH]c1C(=O)O
[25]
  AC50: 105 µM (active)

— ChEMBL document CHEMBL1201862, “PubChem BioAssay data set” (2004)
